{
  "source": "patent US20260325533A1",
  "about": "“CDK INHIBITOR COMPOUNDS” (ALEKSIA THERAPEUTICS, INC., priority 2023, published 2026)",
  "data": [
    {"biological_target": "CDK2/CCNE1 (Homo sapiens, UniProt P24941)", "experiment": "CDK2 homogeneous time-resolved fluorescence (HTRF) kinase assay", "type": "biochemical", "settings": "<25 nM; CDK2/CCNE; read-out: CDK2/CCNE IC50, <25 nM", "protocol": "(§1) A CDK homogeneous time-resolved fluorescence (HTRF) assay was used to assess the potency of the compounds described herein.\n(§2) To an untreated 384-well microtiter plate (ProxiPlate) was added 100 nL 100×test compound in DMSO and 5 μL 2×CDK enzyme in assay buffer (50 mM HEPES, 1 mM EGTA, 10 mM MgCl2, 0.01% Tween 20, 2 mM DTT). The plate was centrifuged at 800 RPM for 1 min then incubated for 20 min at 23 °C. 2.5 μL per well of 4×ATP and 2.5 μL 4×ULight™-eIF4E-binding protein 1 (Thr37/46) Peptide substrate were added to all wells. After addition, the plates were centrifuged at 800 RPM for 1 min. The plates were incubated at 23 °C for 60 min. 5 μL per well 4×EDTA solution were added to each well to stop the reaction. 5 μL 4×LANCE Ultra Europium-anti-phospho-eIF4E-binding protein 1 (Thr37/46) antibody were added to each well and the plate was centrifuged for 1 min at 800 RPM. The plate was incubated for 60 min at 23 °C. Fluorescence was read at 340 nm excitation and 665 nm emission on an En Vision 2105 fluorescence reader. The final concentrations of reagents in the activity assay were 3 nM CDK2/CCNE1, 1 mM ATP, 50 nM ULight™-eIF4E-binding protein 1 (Thr37/46) Peptide substrate, 1% DMSO, 10 mM EDTA, and 2 nM LANCE Ultra Europium-anti-phospho-eIF4E-binding protein 1 (Thr37/46).\n(§3) Dose-response titrations were conducted by using an 11-point, half-logarithmic serial dilution scheme typically starting at 10 μM. Signals were reported as fluorescence units at 665 nm or the ratio of fluorescence units at 665 nm/fluorescence units at 615 nm. Signals are referred to below as “Lance signals”.\n(§4) Using this assay, the IC50 values of example compounds were determined. Table 3 illustrates the IC50 for various Example compounds of Formula IA. Table 4 illustrates the IC50 for various other Example compounds of Formula I. ND=not determined.", "units": {"IC50": "nM"}, "values": [
      {"smiles": "Cc1c(-c2nccc3cnc(Nc4ccc(S(=N)(=O)NC5CCC5)cc4)cc23)ccc2c1cnn2CC(O)(C(F)(F)F)C(F)(F)F", "note": "(single isomer, unassigned) [Ex 690, N-cyclobutyl-4-((5-(4-methyl-1-(3,3,3-trifluoro-2-hydroxy-2-(trifluoromethyl)propyl)-1H-indazol-5-yl)-2,6-naphthyridin-3-yl)amino)benzenesulfonimidamide]", "IC50": "< 25"},
      {"smiles": "Cc1c(-c2nccc3cnc(Nc4ccc(S(=N)(=O)Nc5ccccc5)cc4)cc23)ccc2c1cnn2CC(O)(C(F)(F)F)C(F)(F)F", "note": "(single isomer, unassigned) [Ex 693, 4-((5-(4-methyl-1-(3,3,3-trifluoro-2-hydroxy-2-(trifluoromethyl)propyl)-1H-indazol-5-yl)-2,6-naphthyridin-3-yl)amino)-N-phenylbenzenesulfonimidamide]", "IC50": "< 25"}
    ]},
    {"biological_target": "CDK2/CCNE1 (Homo sapiens, UniProt P24941)", "experiment": "CDK2 homogeneous time-resolved fluorescence (HTRF) kinase assay", "type": "biochemical", "settings": ">250 nM; CDK2/CCNE; read-out: CDK2/CCNE IC50, >250 nM", "protocol": "as §1, §2, §3, §4", "units": {"IC50": "nM"}, "values": [
      {"smiles": "CS(=O)(=O)c1ccc(Nc2cc3c(C#Cc4cccnc4O)nccc3cn2)cc1", "note": "[Ex 902, 3-((7-((4-(methylsulfonyl)phenyl)amino)-2,6-naphthyridin-1-yl)ethynyl)pyridin-2-ol]", "IC50": "> 250"}
    ]},
    {"biological_target": "CDK2/CCNE1 (Homo sapiens, UniProt P24941)", "experiment": "CDK2 homogeneous time-resolved fluorescence (HTRF) kinase assay", "type": "biochemical", "settings": "CDK2/CCNE; 25-250 nM marked x; read-out: CDK2/CCNE IC50 25-250 nM", "protocol": "as §1, §2, §3, §4", "units": {"IC50": "nM"}, "values": [
      {"smiles": "CNC(=O)C1CCCN(c2nccc3cnc(NC4CCN(S(C)(=O)=O)CC4)cc23)C1", "note": "(single isomer, unassigned) [Ex 31, N-methyl-1-(7-((1-(methylsulfonyl)piperidin-4-yl)amino)-2,6-naphthyridin-1-yl)piperidine-3-carboxamide]", "IC50": "25 to 250"},
      {"smiles": "CCC1(CC)C(=O)Nc2cc(C#Cc3nccc4cnc(Nc5ccc(S(=N)(=O)C6CCC6)cc5OC)cc34)ccc21", "note": "(single isomer, unassigned) [Ex 272, 6-((7-((4-(cyclobutanesulfonimidoyl)-2-methoxyphenyl)amino)-2,6-naphthyridin-1-yl)ethynyl)-3,3-diethylindolin-2-one]", "IC50": "25 to 250"},
      {"smiles": "CCC1(CC)C(=O)Nc2cc(C#Cc3nccc4cnc(Nc5ccc(S(=N)(=O)C6CC(F)(F)C6)cc5F)cc34)ccc21", "note": "(single isomer, unassigned) [Ex 302, 6-((7-((4-(3,3-difluorocyclobutane-1-sulfonimidoyl)-2-fluorophenyl)amino)-2,6-naphthyridin-1-yl)ethynyl)-3,3-diethylindolin-2-one]", "IC50": "25 to 250"},
      {"smiles": "CCC1(CC)C(=O)Nc2cc(C#Cc3nccc4cnc(Nc5ccc(S(=N)(=O)C(C)C)cc5OC)cc34)ccc21", "note": "(single isomer, unassigned) [Ex 341, 3,3-diethyl-6-((7-((2-methoxy-4-(propan-2-ylsulfonimidoyl)phenyl)amino)-2,6-naphthyridin-1-yl)ethynyl)indolin-2-one]", "IC50": "25 to 250"},
      {"smiles": "CS(=O)(=O)N1CCC(Nc2cc3c(N4CCOCC4)nccc3cn2)CC1", "note": "[Ex 30, N-(1-(methylsulfonyl)piperidin-4-yl)-5-morpholino-2,6-naphthyridin-3-amine]", "IC50": "25 to 250"},
      {"smiles": "CC(=O)N1CCN(c2nccc3cnc(NC4CCN(S(C)(=O)=O)CC4)cc23)CC1", "note": "[Ex 58, 1-(4-(7-((1-(methylsulfonyl)piperidin-4-yl)amino)-2,6-naphthyridin-1-yl)piperazin-1-yl)ethan-1-one]", "IC50": "25 to 250"},
      {"smiles": "CS(=O)(=O)N1CCC(Nc2cc3c(-c4ccc(C#N)nc4)nccc3cn2)CC1", "note": "[Ex 79, 5-(7-((1-(methylsulfonyl)piperidin-4-yl)amino)-2,6-naphthyridin-1-yl)picolinonitrile]", "IC50": "25 to 250"},
      {"smiles": "COC(=O)c1ccc(Nc2cc3c(C4=CCCCC4)nccc3cn2)cc1", "note": "[Ex 101, methyl 4-((5-(cyclohex-1-en-1-yl)-2,6-naphthyridin-3-yl)amino)benzoate]", "IC50": "25 to 250"},
      {"smiles": "O=C(Oc1ccc(F)cc1)c1ccc(Nc2cc3c(C4=CCCCC4)nccc3cn2)cc1", "note": "[Ex 254, 4-fluorophenyl 4-((5-(cyclohex-1-en-1-yl)-2,6-naphthyridin-3-yl)amino)benzoate]", "IC50": "25 to 250"}
    ]},
    {"biological_target": "CDK2/CCNE1 (Homo sapiens, UniProt P24941)", "experiment": "CDK2 homogeneous time-resolved fluorescence (HTRF) kinase assay", "type": "biochemical", "settings": "CDK2/CCNE; <25 nM; read-out: CDK2/CCNE IC50 <25 nM", "protocol": "as §1, §2, §3, §4", "units": {"IC50": "nM"}, "values": [
      {"smiles": "CCC1(CC)C(=O)Nc2cc(C#Cc3nccc4cnc(Nc5ccc(S(C)(=N)=O)cc5C(F)F)cc34)ccc21", "note": "(single isomer, unassigned) [Ex 295, 6-((7-((2-(difluoromethyl)-4-(S-methylsulfonimidoyl)phenyl)amino)-2,6-naphthyridin-1-yl)ethynyl)-3,3-diethylindolin-2-one]", "IC50": "< 25"},
      {"smiles": "CCC1(CC)C(=O)Nc2cc(C#Cc3nccc4cnc(Nc5ccc(S(=N)(=O)C6CC6)cc5OC)cc34)ccc21", "note": "(single isomer, unassigned) [Ex 300, 6-((7-((4-(cyclopropanesulfonimidoyl)-2-methoxyphenyl)amino)-2,6-naphthyridin-1-yl)ethynyl)-3,3-diethylindolin-2-one]", "IC50": "< 25"},
      {"smiles": "CCC1(CC)C(=O)Nc2cc(C#Cc3nccc4cnc(Nc5ccc(S(=N)(=O)CC)cc5OC)cc34)ccc21", "note": "(single isomer, unassigned) [Ex 309, 3,3-diethyl-6-((7-((4-(ethylsulfonimidoyl)-2-methoxyphenyl)amino)-2,6-naphthyridin-1-yl)ethynyl)indolin-2-one]", "IC50": "< 25"},
      {"smiles": "COc1cc(S(C)(=N)=O)ccc1Nc1cc2c(C#Cc3ccc4c(c3)NC(=O)C43CCC3)nccc2cn1", "note": "(single isomer, unassigned) [Ex 314, 6'-((7-((2-methoxy-4-(S-methylsulfonimidoyl)phenyl)amino)-2,6-naphthyridin-1-yl)ethynyl)spiro[cyclobutane-1,3'-indolin]-2'-one]", "IC50": "< 25"},
      {"smiles": "CCC1(CC)C(=O)Nc2cc(C#Cc3nccc4cnc(Nc5ccc(S(=N)(=O)C6COC6)cc5OC)cc34)ccc21", "note": "(single isomer, unassigned) [Ex 318, 3,3-diethyl-6-((7-((2-methoxy-4-(oxetane-3-sulfonimidoyl)phenyl)amino)-2,6-naphthyridin-1-yl)ethynyl)indolin-2-one]", "IC50": "< 25"},
      {"smiles": "CCC1(CC)C(=O)Nc2cc(C#Cc3nccc4cnc(Nc5ccc(S(C)(=N)=O)cc5OC)cc34)ccc21", "note": "(single isomer, unassigned) [Ex 320, 3,3-diethyl-6-((7-((2-methoxy-4-(S-methylsulfonimidoyl)phenyl)amino)-2,6-naphthyridin-1-yl)ethynyl)indolin-2-one]", "IC50": "< 25"}
    ]},
    {"biological_target": "CDK2/CCNE1 (Homo sapiens, UniProt P24941)", "experiment": "CDK2 homogeneous time-resolved fluorescence (HTRF) kinase assay", "type": "biochemical", "settings": "CDK2/CCNE; x = IC50 <25 nM; read-out: CDK2/CCNE IC50 (<25 nM)", "protocol": "as §1, §2, §3, §4", "units": {"IC50": "nM"}, "values": [
      {"smiles": "CCS(=N)(=O)c1ccc(Nc2cc3c(C#Cc4ccc5c(c4)NC(=O)C54CC4)nccc3cn2)cc1", "note": "(racemic) [Ex 377, 6'-((7-((4-(ethylsulfonimidoyl)phenyl)amino)-2,6-naphthyridin-1-yl)ethynyl)spiro[cyclopropane-1,3'-indolin]-2'-one]", "IC50": "< 25"}
    ]},
    {"biological_target": "CDK1/CCNB1 (Homo sapiens, UniProt P06493)", "sequence (P06493 whole entry)": "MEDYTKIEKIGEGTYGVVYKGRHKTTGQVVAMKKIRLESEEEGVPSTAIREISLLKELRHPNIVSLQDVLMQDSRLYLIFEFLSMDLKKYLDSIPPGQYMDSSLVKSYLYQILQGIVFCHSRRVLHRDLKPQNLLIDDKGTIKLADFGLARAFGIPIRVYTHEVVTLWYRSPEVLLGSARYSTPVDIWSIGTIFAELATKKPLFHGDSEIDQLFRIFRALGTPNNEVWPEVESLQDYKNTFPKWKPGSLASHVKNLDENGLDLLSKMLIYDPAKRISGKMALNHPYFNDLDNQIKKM", "sequence (P14635 whole entry partner)": "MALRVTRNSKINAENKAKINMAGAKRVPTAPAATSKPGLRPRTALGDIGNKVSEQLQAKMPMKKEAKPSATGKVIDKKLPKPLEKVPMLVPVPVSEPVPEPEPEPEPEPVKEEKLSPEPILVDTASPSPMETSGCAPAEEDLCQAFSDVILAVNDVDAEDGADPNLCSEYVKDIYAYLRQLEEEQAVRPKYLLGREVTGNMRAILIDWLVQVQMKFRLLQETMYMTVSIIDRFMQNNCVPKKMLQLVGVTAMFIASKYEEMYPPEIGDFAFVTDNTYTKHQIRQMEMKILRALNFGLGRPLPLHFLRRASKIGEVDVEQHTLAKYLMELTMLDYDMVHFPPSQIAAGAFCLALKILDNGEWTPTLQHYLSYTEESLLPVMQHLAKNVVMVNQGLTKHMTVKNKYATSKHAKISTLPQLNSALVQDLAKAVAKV", "experiment": "CDK1 homogeneous time-resolved fluorescence (HTRF) kinase assay", "type": "biochemical", "settings": "CDK1/CCNB; 25-250 nM marked x; read-out: CDK1/CCNB IC50 25-250 nM", "protocol": "as §1\nas §2, with “were 0.5” for “were 3”, “nM CDK1/CCNB1,” for “nM CDK2/CCNE1,”\nas §3, §4", "units": {"IC50": "nM"}, "values": [
      {"smiles": "N=S(=O)(c1ccc(Nc2cc3c(C#Cc4ccc5c(c4)NC(=O)C54CC4)nccc3cn2)c(F)c1)C1COC1", "note": "(single isomer, unassigned) [Ex 276, 6'-((7-((2-fluoro-4-(oxetane-3-sulfonimidoyl)phenyl)amino)-2,6-naphthyridin-1-yl)ethynyl)spiro[cyclopropane-1,3'-indolin]-2'-one]", "IC50": "25 to 250"}
    ]},
    {"biological_target": "CDK1/CCNB1 (Homo sapiens, UniProt P06493)", "experiment": "CDK1 homogeneous time-resolved fluorescence (HTRF) kinase assay", "type": "biochemical", "settings": "CDK1/CCNB; <25 nM; read-out: CDK1/CCNB IC50 <25 nM", "protocol": "as §1\nas §2, with “were 0.5” for “were 3”, “nM CDK1/CCNB1,” for “nM CDK2/CCNE1,”\nas §3, §4", "units": {"IC50": "nM"}, "values": [
      {"smiles": "N=S(=O)(c1ccc(Nc2cc3c(C#Cc4ccc5c(c4)NC(=O)C54CC4)nccc3cn2)cc1)C1CC1", "note": "(single isomer, unassigned) [Ex 307, 6'-((7-((4-(cyclopropanesulfonimidoyl)phenyl)amino)-2,6-naphthyridin-1-yl)ethynyl)spiro[cyclopropane-1,3'-indolin]-2'-one]", "IC50": "< 25"}
    ]}
  ]
}
